Measurements from patent publication US20250025440A1, “COMPOSITIONS AND METHODS FOR MANAGEMENT OF HUMAN PAPILLOMA VIRUS-ASSOCIATED CANCERS” (LOMA LINDA UNIVERSITY, priority 2021, published 2025).
Like-named read-outs stand apart in the source and are kept apart here.

Legend:
[1] = tested on: HPV- (SCC19, SCC29) and HPV+ (SCC47, SCC104, SCC152) HNSCC cell lines; experiment: Sensitization of HNSCC cell lines to photon radiation; assay type: cell-based; details: radiation 0-4Gy followed by inhibitor; DER10
Procedure: The dose enhancement ratio for 10% survival (DER10) was calculated as follows: DER10=(Dose correlated with 10% survival fraction in radiation-treated cells)/(Dose correlated with 10% survival fraction in radiation and inhibitor treated cells).
CCDP, Cetuximab, and GA-OH were evaluated for their ability to sensitize HNSCC cell lines to photon radiation.
Colonies were counted after 14-21 days and normalized to vehicle control and survival analysis was performed.
Sensitization of an additional HPV^+ cell line to radiation by CDDP, Cetuximab and GA-OH was evaluated.

[2] = molecular target: T1, full-length HPV E6 binding to human Caspase 8 (Human papillomavirus type 16, UniProt P03126); details: for inhibition of E6-caspase 8 binding relative to GA: SAR analogs
T1 construct: made in house; host or cells: E. coli
T1 sequence (P03126 whole entry): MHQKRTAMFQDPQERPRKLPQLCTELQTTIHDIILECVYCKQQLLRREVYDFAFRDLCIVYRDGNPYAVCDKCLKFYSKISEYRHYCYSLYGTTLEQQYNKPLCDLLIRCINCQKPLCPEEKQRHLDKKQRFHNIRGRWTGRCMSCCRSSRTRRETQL
Procedure: Three structurally diverse libraries (Prestwick library, Microsource Spectrum library and an in-house collection at Kansas University; see Table 1) were screened for the ability of compounds to inhibit the binding of full-length HPV E6 to human Caspase 8 using a previously optimized AlphaScreen™ protocol.
The compounds were diluted to a working concentration in DMSO and screened at a single-point final concentration of 10 μM with no replicates. Briefly, 75 nL of each compound was transferred and added to wells of the destination 384-well plate using the Echo dispenser to 4 μL of blocking solution. 4 μL of 800 nM GST-E6 and 4 μL of His6-Caspase 8 were added and pre-incubated at room temperature for 60 minutes. 8 μL of the donor and acceptor bead mixture (final concentration of 20 μg/ml) was then added. The plates were sealed and incubated for 4 hours at room temperature before the plates were read using the Envision™ Multi-Label plate reader (Perkin Elmer Inc.). […] A 10-point serial dilution of these compounds was done for dose-dependency reconfirmation. Dose response inhibition curves were constructed and IC50 calculated using GraphPad Prism using four parameter non-linear regression analysis.
The first counter-screen assay was based using the GST-His6 fusion peptide as the E6-binding partner instead of GST-E6-His6-Caspase 8. Hit candidate compounds from the primary screen were prepared using a 6-point serial dilution. Using an Echo dispenser, compounds were transferred to plates containing 4 μL of blocking buffer. 8 μL of 5 nM GST-His6 peptide substrate was then added. The mixture was pre-incubated at room temperature for 60 minutes. Glutathione donor and nickel chelate acceptor beads (final concentration 20 μg/mL) were added and incubated for another 60 minutes at room temperature. Dose-dependency of the compounds using GST-E6-His6-Caspase 8 was performed in parallel using the same protocol as in the primary screen. The signals were then read using the Envision™ plate reader.
(§1) Using the SciFinder and Zinc15 databases, several gambogic acid structural analogs were identified and selected. The 8 analogs were obtained as follow: gambogenic amide (Enzo Life Sciences), gambogenic acid (Selleckchem), morellic acid (Aobious), 30-hydroxy gambogic acid (Quality Phytochemicals, LLC), acetyl gambogic acid (Microsource), and gambogin, neogambogic acid and isomorellinol (MolPort Natural Products). Additional gambogic acid was purchased from Tocris. The interactions of the analogues with E6-caspase 8 was tested using AlphaScreen™ technology using the same protocol as with the primary screen, and were compared to the parent compound. The effect on cell viability was also similarly done in HPV^+ and HPV^− cell lines via the MTT assay (see below) and potency was determined using GraphPad IC50 curve fitting.

[3] = tested on: SCC104 (HPV+ HNSCC cell line); experiment: MTT cell viability of gambogic acid analogs; assay type: cell-based; details: for rank among highest IC50s relative to the parent compound: SCC104, MTT
Procedure: Next, the analogs were evaluated for functional activity using the HPV^+ HNSCC cell line, SCC104, in the MTT assay as described previously to determine whether similar findings would be observed as in the in vitro AlphaScreen™ analysis. With one exception, the patterns were similar to the AlphaScreen™ data, but the differences were relatively more pronounced in the cell-based screen (FIG. 6B). […] Based on these findings, 30-hydroxygambogic acid (GA-OH) was selected as a candidate for more extensive functional studies.
as §1
(§2) All working concentrations were diluted in PBS to the desired concentration before use. To test the effect of gambogic acid and/or its derivatives on cell viability, all cell lines were seeded at 2×10^4 per well in 96-well plates and allowed to adhere overnight. Various concentrations of the analogues were added and the cells incubated at 37° C. for 24 hr. Viability was then measured using the MTT assay, performed as described previously. All experiments were repeated at least three times (three biological replicates, carried out on different days). Data presented are from a representative experiment. Cell viability and potency were assessed from % inhibition relative to the vehicle control, and IC50 dose curves were generated using GraphPad Prism.

[4] = molecular target: T2, E6 binding to E6AP (GST-E6 and His6-E6AP) (Human papillomavirus type 16, UniProt P03126); experiment: AlphaScreen E6-E6AP binding (cross-validation); details: head to head comparison gambogic acid vs myricetin; read-out: IC50 against E6-E6AP
T2 construct: made in house; host or cells: E. coli (stated for GST-E6 only)
T2 sequence (P03126 whole entry): as above
Procedure: Its activity was then cross-validated by performing additional AlphaScreening™ tests using GST-E6 and His6-E6AP as substrates. […] The activity of these two inhibitors against E6-Caspase 8 binding were evaluated in parallel for a head to head comparison.
The selected compound(s) were then cross-validated with a related but different primary screen assay. Specifically, the caspase 8 used in the primary screen was replaced with E6AP and the inhibitory activity was evaluated against E6 binding to E6AP (E6-E6AP) using the same steps as in the AlphaScreen™ protocol described above.

[5] = tested on: HPV+ (SCC47, SCC090, SCC104, SCC152) and HPV- (SCC19, SCC29, SCC49, SCC84) HNSCC cell lines; experiment: MTT cell viability, HNSCC panel; assay type: cell-based
Procedure: While SAR studies using the SCC104 cell line provided evidence of the activity of the analogs, further studies were conducted to assess not just the potency, but also the selectivity. As a step towards that goal, the efficacy of GA-OH was evaluated in a panel containing both HPV^+ and HPV^− HNSCC cell lines using MTT cell viability assays. Four HPV^+ cell lines (SCC47, SCC090, SCC104, SCC152) and four HPV^− cell lines (SCC19, SCC29, SCC49, SCC84) were utilized. GA-OH behaved dose dependently in cell lines both with or without HPV. […] FIGS. 7A-7C are graphical representations of the sensitivity of HPV^+ cell lines and HPV^− cell lines to GA-OH-mediated growth inhibition. FIG. 7A is a graphical representation of the cell growth inhibition of HNSCC HPV^+ and HPV^− cell lines by GA-OH (+ and closed shapes represent HPV^+ cell lines and − and open shapes the HPV^− cell lines). […] These cells were good controls, as HPV is an established causative agent in CC carcinogenesis. Two HPV^+ cell lines, SiHa and CaSki were selected as the positive controls and the Saos-2 cell line was used as an HPV-negative control. […] FIG. 7B is a graphical representation of the cell growth inhibition of cervical cancer HPV^+ and HPV^− cell lines by GA-OH. HPV^+ cell lines display higher sensitivity than do HPV^− cell lines as shown by the leftwards shift of the HPV^+ curves (SCC47, 90, 104, 152 in FIG. 7A and SiHa and CaSki in FIG. 7B).
as §2, with “All experiments were repeated at least three times (three biological replicates, carried out on different days). Data presented are from a representative experiment.” left out

[6] = toxicities to organs only at high concentrations; cited from earlier work

[NH2][Pt]([NH2])([Cl])[Cl] [CDDP, cisplatin, reference compound]
sensitization to photon radiation [1]: greatest sensitization

CC(C)=CCc1c2c(c(O)c3c1O[C@]14C(=C[C@@H]5C[C@H]1C(C)(C)O[C@@]4(C/C=C(/C)C(=O)O)C5=O)C3=O)C=CC(C)(C)O2 [analog #2, morellic acid]
inhibition of E6-caspase 8 binding relative to GA [2]: did not significantly affect the activity

CC(C)=CCC/C(C)=C/Cc1c(O)c(CC=C(C)C)c2c(c1O)C(=O)C1=C[C@@H]3C[C@H]4C(C)(C)O[C@@](C/C=C(/C)C(=O)O)(C3=O)[C@@]14O2 [analog #3, gambogenic acid]
rank among highest IC50s relative to the parent compound [3]: third

CC(C)=CCC[C@]1(C)C=Cc2c(O)c3c(c(CC=C(C)C)c2O1)O[C@]12C(=C[C@@H]4CC1C(C)(C)O[C@@]2(C/C=C(/C)C(N)=O)C4=O)C3=O [analog #4, gambogic amide]
inhibition of E6-caspase 8 binding relative to GA [2]: did not significantly affect the activity

CC(C)=CCCC1(C)CC(O)c2c(O)c3c(c(CC=C(C)C)c2O1)OC12C(=CC4CC1C(C)(C)OC2(C/C=C(\C)C(=O)O)C4=O)C3=O (stereo not shown) [analog #5, neo-gambogic acid]
rank among highest IC50s relative to the parent compound [3]: fourth

CC(C)=CCCC1(C)C=Cc2c(O)c3c(c(CC=C(C)C)c2O1)O[C@]12C(=CC4C[C@H]1C(C)(C)OC2(CC=C(C)C)C4=O)C3=O (stereo partly shown) [analog #6, gambogin]
rank among highest IC50s relative to the parent compound [3]: first

CC(C)=CCc1c2c(c(O)c3c1OC14C(=CC5CC1C(C)(C)OC4(C/C=C(\C)CO)C5=O)C3=O)C=CC(C)(C)O2 (stereo not shown) [analog #7, iso morellinol]
inhibition of E6-caspase 8 binding relative to GA [2]: did not significantly affect the activity

CC(=O)Oc1c2c(c(CC=C(C)C)c3c1C(=O)C1=C[C@@H]4CC5C(C)(C)OC(C/C=C(\C)C(=O)O)(C4=O)[C@@]15O3)OC(C)(CCC=C(C)C)C=C2 (stereo partly shown) [analog #8, acetyl iso-gambogic acid]
inhibition of E6-caspase 8 binding relative to GA [2]: did not significantly affect the activity | potency in MTT assay ([3]; SCC104, 24 hr): diminished activity

CC(C)=CCC[C@]1(C)C=Cc2c(O)c3c(c(CC=C(C)C)c2O1)O[C@]12C(=C[C@@H]4C[C@H]1C(C)(C)O[C@@]2(C/C=C(/C)C(=O)O)C4=O)C3=O [gambogic acid]
IC50 ([2]; 11 compounds that passed counter-screening, read-out: IC50 (μM) against E6-Caspase 8 binding): 2 µM | IC50 ([2]; head to head comparison gambogic acid vs myricetin, read-out: IC50 against E6-Caspase 8): 1.9 µM | IC50 [4]: 1700 nM | potency and selectivity for HPV+ versus HPV- cells [5]: significantly more sensitive | tolerability in animal studies [6]: relatively tolerable

O=c1c(O)c(-c2cc(O)c(O)c(O)c2)oc2cc(O)cc(O)c12 [myricetin, reference compound]
IC50 ([2]; read-out: IC50 against E6-Caspase 8): 4.6 µM | IC50 [4]: 5600 nM
